Measured values reported in patent US20120142005A1, “METHOD FOR SCREENING OF REGENERATIVE MEDICINE” (TAKEDA PHARMACEUTICAL COMPANY LIMITED, priority 2009, published 2012).

Legend:
Type in all cases: cell-based
[1] = tested on: human mesenchymal stem cells; assay: Bone differentiation of human mesenchymal stem cells: staining with alkaline phosphatase; settings: 8 days
Procedure: To further verify the influence of compounds on bone differentiation, staining with alkaline phosphatase was performed. Simultaneously with inducing bone differentiation, 3 μM BIO or 10 μM BrdU was added, followed by adhesion culture for 8 days. After culture, cells were fixed with 4% paraformaldehyde (Wako Pure Chemical Industries Ltd.) for 30 minutes and then washed 3 times with PBS. Alkaline phosphatase kit III (Vector Laboratories) was used according to the appended protocol to stain with alkaline phosphatase.

[2] = tested on: human mesenchymal stem cells; assay: Bone differentiation of human mesenchymal stem cells: expression of Alp1, Runx2, Col1a1 and PTHR by quantitative RT-PCR; settings: 8 days; for level of expression of Alp1: 3 μM compound added with bone differentiation induction, relative to DMSO control
Procedure: Then, the influence of the selected compounds was examined on bone differentiation of human mesenchymal stem cells. The human mesenchymal stem cells were maintained and cultured using the same technique as in Example 6. Cells were seeded on a 96-well plate to 1,000 cells per well and then cultured overnight using the growth medium. Thereafter, the bone differentiation was induced by exchanging the medium with a medium made by addition of 10% calf fetal serum, 2 mM GlutaMAX-1, 10 mMβ-glycerophosphate (Wako Pure Chemical Industries Ltd.), 0.05 mM ascorbic acid-2-phosphate (Wako Pure Chemical Industries Ltd.), 0.1 μM dexamethasone (Wako Pure Chemical Industries Ltd.), and 1× penicillin-streptomycin (Sigma) to low-glucose DMEM. Simultaneously with inducing bone differentiation, each selected compound was added to a final concentration of 3 μM, followed by adhesion culture for 8 days. After the end of culture, the level of expression of Alkaline phosphatase (Alp1) as an initial osteoblast marker was measured using the same technique as in Example 1.
The expression of other bone differentiation markers for which BIO or BrdU was added was also examined. Adhesion culture was performed for 8 days after adding BIO or BrdU, followed by measuring the levels of expression of runt-related transcription factor 2 (Runx2), collagen type 1 alpha 1 (Col1a1), and parathyroid hormone receptor (PTHR) using the same technique as in Example 1.

[3] = tested on: human mesenchymal stem cells; assay: Bone differentiation of human mesenchymal stem cells: amount of calcium accumulated in cells; settings: 15 days
Procedure: In addition, the amount of calcium accumulated in cells was examined. Simultaneously with inducing bone differentiation, 3 μM BIO or 10 μM BrdU was added, followed by adhesion culture for 15 days. After culture, cells were washed with PBS, followed by dissolving the cells in a solution consisting of 10 mM Tris-HCl and 0.2% TritonX-100. Using a portion of the solution, the protein concentration was measured employing BCA protein assay kit (Pierce). Hydrochloric acid was added to a final concentration of 0.5 N to the remaining solution, which was then shaken overnight. The amount of calcium dissolving in the solution containing 0.5 N hydrochloric acid was measured using Calcium E-test Kit Wako (Wako Pure Chemical Industries Ltd.). The amount of calcium used the value corrected for the amount of protein for analysis.

[4] = tested on: human mesenchymal stem cells; assay: Adipose differentiation of human mesenchymal stem cells: amount of adiponectin in culture solution, ELISA; settings: adhesion culture 8 days
Procedure: In addition, when each of the 3 compounds was added, the amount of adiponectin contained in a corresponding culture solution was measured. Simultaneously with inducing adipose differentiation, 10 μM Y-27632, 10 μM HA-100, or 3 μM capsazepine was added, followed by adhesion culture for 8 days. After culture, the amount of adiponectin contained in the culture solution was measured using a human adiponectin ELISA kit (R&D systems).

[5] = tested on: human mesenchymal stem cells; assay: Adipose differentiation of human mesenchymal stem cells: fat droplet formation, oil red O staining; settings: adhesion culturing 5 days
Procedure: The influence of the 3 compounds on fat droplet formation was then examined. Simultaneously with inducing adipose differentiation, 10 μM Y-27632, 10 μM HA-100, or 3 μM capsazepine was added to an adipose differentiation induction medium, followed by adhesion culturing for 5 days. Thereafter, the cells were fixed with 4% paraformaldehyde (Wako Pure Chemical Industries Ltd.) for 30 minutes and then washed 3 times with PBS. In addition, the cells were stained with 0.36% oil red 0 (Chemicon) at room temperature for 50 minutes and then washed 3 times with distilled water, followed by observing and photographing the cell.

[6] = tested on: human mesenchymal stem cells; assay: Adipose differentiation of human mesenchymal stem cells: expression of adiponectin and PPARγ by quantitative RT-PCR; settings: for level of expression of adiponectin: 3 μM compound added with adipose differentiation induction, 5 days, relative to DMSO control; for level of expression of PPARγ: adipose differentiation, 5 days (FIG. 12a)
Procedure: There was possibility that the selected compounds control the differentiation of adult stem cells as well as ES cells. Accordingly, the influence of these selected compounds was examined on adipose differentiation of human mesenchymal stem cells. The human mesenchymal stem cells were purchased from Lonza and subjected to adhesion culturing using a medium made by addition of 10% calf fetal serum, 2 mM GlutaMAX-1, and 1× penicillin-streptomycin (Sigma) (hereinafter referred to as “growth medium”) to low-glucose DMEM (Invitrogen). Upon induction of an adipose differentiation, cells were seeded on a 96-well plate to 3,000 cells per well and then cultured overnight using the growth medium. Thereafter, the adipose differentiation was induced by exchanging the growth medium with an adipose differentiation induction medium (i.e., a medium made by addition of 10% calf fetal serum, 2 mM GlutaMAX-1, 0.5 mM 3-isobutyl-1-methylxanthine (IBMX, Wako Pure Chemical Industries Ltd.), 10 μg/ml insulin (Wako Pure Chemical Industries Ltd.), 1 μM dexamethasone (Wako Pure Chemical Industries Ltd.), 200 μM indomethacin (Wako Pure Chemical Industries Ltd.), and 1× penicillin-streptomycin (Sigma) to high-glucose DMEM (Invitrogen)). Simultaneously with inducing adipose differentiation, each selected compound was added to a final concentration of 3 μM, followed by culture for 5 days. After 5 days, the level of expression of adiponectin as a fat cell marker was measured using the same technique as that described in Example 1.
In addition, the level of expression of PPARγ as a master regulator of adipose differentiation for which the 3 compounds (Y-27632, HA-100 and capsazepine) were each added was also measured using the same technique.

`O=C1Nc2cc(Br)ccc2/C1=C1/Nc2ccccc2/C1=N\O` [BIO, 6-bromoindirubin-3′ oxime] was tested, and the “stainability with alkaline phosphatase (alkaline phosphatase activity)” value ([1]; 3 μM compound) was “increased the stainability with alkaline phosphatase”, the “level of expression of Alp1” value [2] was “noticeably increasing the level of expression of Alp1” and the “level of expression of Col1a1” value ([2]; 3 μM compound) was “noticeably increased”. The “level of expression of PTHR” value ([2]; 3 μM compound) was “noticeably increased”, the “level of expression of Runx2” value ([2]; 3 μM compound) was “noticeably increased” and the “amount of calcium in cells, corrected for amount of protein” value ([3]; 3 μM compound) was “increased the amount of calcium in cells”.
With `O=c1[nH]c(=O)n([C@H]2C[C@H](O)[C@@H](CO)O2)cc1Br` [BrdU, 5-Bromo-2′-deoxyuridine] the “stainability with alkaline phosphatase (alkaline phosphatase activity)” value ([1]; 10 μM compound) was “increased the stainability with alkaline phosphatase”, the “level of expression of Alp1” value [2] was “noticeably increasing the level of expression of Alp1” and the “level of expression of Col1a1” value ([2]; 10 μM compound) was “noticeably increased”. The “level of expression of PTHR” value ([2]; 10 μM compound) was “noticeably increased”, the “level of expression of Runx2” value ([2]; 10 μM compound) was “noticeably increased” and the “amount of calcium in cells, corrected for amount of protein” value ([3]; 10 μM compound) was “increased the amount of calcium in cells”.
In the case of `O=S(=O)(c1cccc2cnccc12)N1CCNCC1` [HA-100], the “amount of adiponectin contained in the culture solution” value (from here on “amount of adiponectin contained”) ([4]; 10 μM compound) is reported as “noticeably increased the amount of adiponectin”, the “amount of fat droplets (oil red O) compared to DMSO control” value (“amount … compared to DMSO control” below) ([5]; 10 μM compound) is reported as “the amount of fat droplets increased” and the “level of expression of adiponectin” value [6] is reported as “increase the level of expression of adiponectin”. The “level of expression of PPARγ” value [6] was “increasing the level of expression of PPARγ in a concentration-dependent manner”.
`C[C@@H](N)[C@H]1CC[C@H](C(=O)Nc2ccncc2)CC1` [Y-27632] was tested, and the “amount of adiponectin contained” value ([4]; 10 μM compound) was “noticeably increased the amount of adiponectin”, the “amount … compared to DMSO control” value ([5]; 10 μM compound) was “the amount of fat droplets increased” and the “level of expression of adiponectin” value [6] was “increase the level of expression of adiponectin”. For the same compound, the “level of expression of PPARγ” value [6] was “increasing the level of expression of PPARγ in a concentration-dependent manner”.
In the case of `Oc1cc2c(cc1O)CN(C(=S)NCCc1ccc(Cl)cc1)CCC2` [capsazepine], the “amount of adiponectin contained” value ([4]; 3 μM compound) is reported as “no action of increasing the amount of adiponectin”, the “amount … compared to DMSO control” value ([5]; 3 μM compound) is reported as “no noticeable activity of increasing fat droplet formation” and the “level of expression of adiponectin” value [6] is reported as “increase the level of expression of adiponectin”.
